From US6369075B1, “7[4′-trifluoromethyl-biphenyl-2-carbonyl)amino]-quinoline-3-carboxylic acid amides, and method of inhibiting the secretion of apolipoprotein B” (Pfizer, Inc., priority 1999, dated 2002)

CCS(=O)(=O)O.CCS(=O)(=O)O.O=C(N[C@@H](c1ccccc1)c1ccccn1)c1cnc2cc(NC(=O)c3ccccc3-c3ccc(C(F)(F)F)cc3)ccc2c1 [Example 2D, (S)-7-[(4′-Trifluoromethyl-biphenyl-2-carbonyl)-amino]-quinoline-3-carboxylic acid (phenyl-pyridin-2-yl-methyl)-amide, bis-ethanesulfonate]
melting point: 158 °C
